Laboratory results from patent US11214803B2, “Modulators of YAP1 expression” (Ionis Pharmaceuticals, Inc., priority 2019, dated 2022).
Strand notation (5' to 3'): a small letter for the sugar, then the base; units joined by * are phosphorothioate-linked, units joined directly phosphodiester-linked; [ ] holds rarer units or linkages, { } end groups; capitals alone tell only the bases. e = 2'-O-(2-methoxyethyl) (MOE); k = constrained ethyl (cEt); [5mC] = 5-methylcytosine; d = 2'-deoxy (DNA); m = 2'-O-methyl

Test system: Yap1 mRNA
Test: Dose-dependent inhibition of human Yap1 in SNU-449 cells (Example 9, RTS36584)
Assay type: cell-based
Settings: free uptake; for % UTC (Yap1 mRNA): approximately 48 hours; for IC50: linear regression on a log/linear plot
Protocol: Modified oligonucleotides described in the studies above were tested at various doses in SNU-449 cells. Cultured SNU-449 cells at a density of 10,000 cells per well were treated using free uptake with modified oligonucleotides diluted to concentrations described in the tables below. After approximately 48 hours, Yap1 mRNA levels were measured as previously described using the Human Yap1 primer-probe set RTS36584. Yap1 mRNA levels were normalized to total RNA content, as measured by RIBOGREEN®. Results are presented in the tables below as percent control of the amount of Yap1 mRNA relative to untreated control cells (% UTC). IC50s were calculated using a linear regression on a log/linear plot of the data in excel.

Row | Substance | % UTC (Yap1 mRNA) (31.3 nM) [% UTC] | % UTC (Yap1 mRNA) (125.0 nM) [% UTC] | % UTC (Yap1 mRNA) (500.0 nM) [% UTC] | % UTC (Yap1 mRNA) (2000.00 nM) [% UTC] | IC50 [nM]
1 | 1198616 (kT*kT*kT*dA*dA*dA*dG*dT*dG*dT*dA*dT*kG*kT*k[5mC]*eA; antisense) [compound 1198616] | 78 | 46 | 18 | 5 | 100
2 | 1198815 (kT*kA*dG*dA*dG*dT*dA*dT*dG*dT*dG*kG*e[5mC]*kA*eA*kT; antisense) [compound 1198815] | 84 | 64 | 34 | 15 | 200
3 | 1198553 (kT*kA*kG*dA*dG*dT*dA*dT*dG*dT*dG*dG*k[5mC]*kA*kA*eT; antisense) [compound 1198553] | 65 | 38 | 19 | 6 | 100
4 | 1198492 (kG*k[5mC]*dT*dT*dT*dG*dG*dA*dA*dG*dA*eT*k[5mC]*eT*kG*eA; antisense) [compound 1198492] | 67 | 39 | 19 | 10 | 100
5 | 1197309 (kG*kT*kA*dA*mU*dA*dT*dT*dG*d[5mC]*dA*dA*dT*k[5mC]*kT*kG; antisense) [compound 1197309] | 91 | 63 | 30 | 9 | 200
6 | 1198352 (kT*kG*kT*dA*dT*dG*dT*d[5mC]*dA*dG*dA*dA*kG*eA*kG*eT; antisense) [compound 1198352] | 58 | 29 | 10 | 3 | 40
7 | 1198718 (kG*eA*kA*dA*dT*dT*dG*dT*d[5mC]*dT*d[5mC]*dA*eT*eG*k[5mC]*k[5mC]; antisense) [compound 1198718] | 87 | 37 | 14 | 4 | 100
8 | 1198904 (kT*kA*dT*dT*dA*dG*dA*dG*dT*dA*dT*kG*dT*kG*dG*k[5mC]; antisense) [compound 1198904] | 78 | 36 | 23 | 10 | 100
9 | 1198213 (kA*kT*dA*dT*dT*dA*dG*dA*dG*dT*dA*eT*eG*eT*kG*kG) [compound 1198213] | 91 | 33 | 11 | 3 | 100
10 | 1198656 (kG*k[5mC]*dA*d[5mC]*dT*dT*dT*dT*dA*d[5mC]*dA*dT*kT*eA*kG*eG; antisense) [compound 1198656] | 55 | 22 | 8 | 3 | < 30
11 | 1198355 (kA*kA*kA*dG*dT*dG*dT*dA*dT*dG*dT*d[5mC]*kA*eG*kA*eA; antisense) [compound 1198355] | 63 | 34 | 10 | 4 | 100
12 | 1197223 (kT*kA*kA*dG*dT*dA*dA*dG*dG*dT*dT*dT*d[5mC]*k[5mC]*k[5mC]*kA; antisense) [compound 1197223] | 88 | 55 | 25 | 8 | 200
13 | 1198613 (kA*kA*kA*dG*dT*dG*dT*dA*dT*dG*dT*d[5mC]*kA*kG*kA*eA; antisense) [compound 1198613] | 80 | 25 | 7 | 2 | 100
14 | 1198406 (kG*d[5mC]*dT*dT*dT*dG*dG*dA*dA*dG*dA*kT*e[5mC]*kT*eG*kA; antisense) [compound 1198406] | 70 | 57 | 31 | 16 | 200
15 | 1200788 (kG*kA*kA*dA*dT*mU*dG*dT*d[5mC]*dT*d[5mC]*dA*dT*kG*k[5mC]*k[5mC]) [compound 1200788] | 61 | 38 | 19 | 9 | 100
